Test results published in US20120053165A1, “Novel Phenyl Imidazoles and Phenyl Triazoles As Gamma-Secretase Modulators” (Pfizer Inc., priority 2009, published 2012).
pIC50: −log10 of the molar value. Structures can show the parent of a compound that is named as a salt.

What follows are molecules tested on production of amyloid beta protein Aβ(1-42) in human WT-APP overexpressing CHO cells. Conditions: Homo sapiens, CHO, read-out: Aβ 42 IC50.
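Note: Aβ(1-42) released into conditioned medium captured by ELISA after roughly 24 h compound exposure, vehicle and inhibitor controls defining maximal and minimal inhibition.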
Procedure: Cell-Based γ-Secretase Assay with ELISA Readout
The ability of compounds to modulate production of amyloid beta protein Aβ(1-42) was determined using human WT-APP overexpressing CHO cells. Cells were plated at 22,000 cells/100 μL well in 96 well tissue culture treated, clear plates (Falcon) in DMEM/F12 based medium and incubated for 24 hours at 37° C. […] Compounds were added in fresh medium to achieve 1% final DMSO. Appropriate vehicle and inhibitor controls were added to obtain maximum and minimum inhibition values for the assay before the plates were incubated for about 24 hours at 37° C.
Coating of ELISA assay plates was initiated by addition of 50 μL/well of an in house Aβ(1-42) specific antibody at (4 μg/mL) in 0.1 M NaHCO3 (pH 9.0) into black 384-well Maxisorp® plates (Nunc) and incubated overnight at 4° C. […] Ambient temperature incubation was allowed to proceed for a minimum of two hours before washing 2×100 μL with Wash Buffer (Dulbecco's PBS, 0.05% Tween 20). Assay Buffer (Dulbecco's PBS, 1.0% BSA (Sigma A7030), 0.05% Tween 20) 20 μL/well is then added.
After incubation overnight at 37° C., 5% CO2, 40 μL (in duplicate) of experimental conditioned media are transferred into wells of the blocked ELISA plates containing the capture antibody, followed by overnight incubation at 4° C.
After overnight incubation of the ELISA assay plates at 4° C., unbound Aβ peptides were removed thorough (4×100 μL) washes with Wash Buffer.

| Compound | pIC50 |
| --- | --- |
| COc1cc(C(=O)NCCc2c(C)[nH]c3c(Cl)cc(Cl)cc23)ccc1-n1cnc(C)c1 [Example 51, N-[2-(5,7-dichloro-2-methyl-1H-indol-3-yl)ethyl]-3-methoxy-4-(4-methyl-1H-imidazol-1-yl)benzamide] | 6.72 |
| COc1cc(C(=O)NCCc2ccc(C)c(C)c2)ccc1-n1cnc(C)c1 [Example 64, N-[2-(3,4-dimethyl-phenyl)ethyl]-3-methoxy-4-(4-methyl-1H-imidazol-1-yl)benzamide] | 6.40 |
| COc1cc(C(=O)NCCc2c(C)[nH]c3ccc(C)cc23)ccc1-n1cnc(C)c1 [Example 73, N-[2-(2,5-dimethyl-1H-indol-3-yl)ethyl]-3-methoxy-4-(4-methyl-1H-imidazol-1-yl)benzamide] | 6.35 |

Same assay, conditions: Homo sapiens, CHO, read-out: Aβ 42 IC50, Geometric mean of 2-8 determinations; human WT-APP overexpressing CHO cells

| Compound | pIC50 |
| --- | --- |
| COc1cc(C(=O)NC(c2ccc(F)cc2)c2cccs2)ccc1-n1cnc(C)c1 (stereo not drawn) [Example 41, N-[(4-fluoro-phenyl)(2-thienyl)methyl]-3-methoxy-4-(4-methyl-1H-imidazol-1-yl)benzamide, trifluoroacetic acid salt] | 6.48 |
| COc1cc(C(=O)N[C@@H]2COC[C@@H]2Oc2ccc(Br)cc2)ccc1-n1cnc(C)c1 [Example 48, N-[(3R,4R)-4-(4-bromophenoxy)-tetrahydro-furan-3-yl]-3-methoxy-4-(4-methylimidazol-1-yl)benzamide] | 5.76 |
| COc1cc(C(=O)NCc2csc(-c3ccc(C(F)(F)F)cc3)n2)ccc1-n1cnc(C)c1 [Example 50, 3-methoxy-4-(4-methyl-1H-imidazol-1-yl)-N-({2-[4-(trifluoromethyl)phenyl]-1,3-thiazol-4-yl}methyl)benzamide] | 6.82 |
| COc1cc(C(=O)NCc2ccc(F)c(Cl)c2)ccc1-n1cnc(C)c1 [Example 54, N-(3-chloro-4-fluorobenzyl)-3-methoxy-4-(4-methyl-1H-imidazol-1-yl)benzamide] | 6.49 |
| COc1cc(C(=O)NCc2cccc(OC(F)(F)F)c2)ccc1-n1cnc(C)c1 [Example 55, 3-methoxy-4-(4-methyl-1H-imidazol-1-yl)-N-[3-(trifluoromethoxy)benzyl]benzamide] | 6.48 |
| COc1cc(C(=O)NCCCCc2ccccc2)ccc1-n1cnc(C)c1 [Example 61, 3-methoxy-4-(4-methyl-1H-imidazol-1-yl)-N-(4-phenyl-butyl)benzamide] | 6.45 |
| COc1cc(C(=O)NCC(C)Oc2ccccc2Cl)ccc1-n1cnc(C)c1 (stereo not drawn) [Example 74, N-[2-(2-chlorophenoxy)propyl]-3-methoxy-4-(4-methyl-1H-imidazol-1-yl)benzamide] | 6.33 |

Same assay, conditions: Homo sapiens, CHO, read-out: Aβ 42 IC50, Single IC50 determination; human WT-APP overexpressing CHO cells

| Compound | pIC50 |
| --- | --- |
| COc1cc(C(=O)NCC2C3CC4CC(C3)CC2C4)ccc1-n1cnc(C)c1 (stereo not drawn) [Example 40, N-(adamantan-2-ylmethyl)-3-methoxy-4-(4-methyl-1H-imidazol-1-yl)benzamide] | 6.73 |
| COc1cc(C(=O)N2CC[C@@H](Oc3ccccc3C(F)(F)F)C2)ccc1-n1cnc(C)c1 [Example 69, 1-[2-methoxy-4-({(3R)-3-[2-(trifluoromethyl)phenoxy]pyrrolidin-1-yl}carbonyl)phenyl]-4-methyl-1H-imidazole] | 6.38 |

Same assay, conditions: read-out: Aβ 42 IC50; Geometric mean of 2-8 determinations; human WT-APP overexpressing CHO cells

| Compound | pIC50 |
| --- | --- |
| COc1cc(C(=O)NCC(CO)c2cccc(C(F)(F)F)c2)ccc1-n1cnc(C)c1 (stereo not drawn) [Example 35, N-{3-hydroxy-2-[3-(trifluoro-methyl)phenyl]propyl}-3-methoxy-4-(4-methyl-1H-imidazol-1-yl) benzamide] | 6.04 |
| COc1cc(C(=O)NCC2(c3ccc(Cl)cc3)CCCC2)ccc1-n1cnc(C)c1 [Example 36, N-{[1-(4-chlorophenyl)cyclopentyl]methyl}-3-methoxy-4-(4-methyl-1H-imidazol-1-yl) benzamide] | 6.68 |
| COc1cc(C(=O)NCCc2nc3ccc(Cl)cc3o2)ccc1-n1cnc(C)c1 [Example 38, N-[2-(6-chloro-1,3-benzoxazol-2-yl)ethyl]-3-methoxy-4-(4-methyl-1H-imidazol-1-yl) benzamide] | 6.45 |
| COc1cc(C(=O)NCc2cccc(C(=O)c3ccccc3)c2)ccc1-n1cnc(C)c1 [Example 42, N-(3-benzoyl-benzyl)-3-methoxy-4-(4-methyl-1H-imidazol-1-yl) benzamide] | 6.50 |
| COc1cc(C(=O)NCc2ccc(C(=O)c3ccccc3)cc2)ccc1-n1cnc(C)c1 [Example 43, N-(4-benzoyl-benzyl)-3-methoxy-4-(4-methyl-1H-imidazol-1-yl) benzamide] | 6.24 |
| COc1cc(C(=O)NCc2csc(-c3cccs3)n2)ccc1-n1cnc(C)c1 [Example 44, 3-methoxy-4-(4-methyl-1H-imidazol-1-yl)-N-{[2-(2-thienyl)-1,3-thiazol-4-yl]methyl} benzamide] | 6.24 |
| COc1cc(C(=O)NCc2nc(-c3ccc(Cl)cc3)no2)ccc1-n1cnc(C)c1 [Example 45, N-{[3-(4-chlorophenyl)-1,2,4-oxadiazol-5-yl]methyl}-3-methoxy-4-(4-methyl-1H-imidazol-1-yl) benzamide, formic acid salt] | 6.14 |
| COc1cc(C(=O)NCC2CCCC2)ccc1-n1cnc(C)c1 [Example 47, N-cyclopentyl-methyl-3-methoxy-4-(4-methyl-imidazol-1-yl)-benzamide] | 5.92 |
| COc1cc(C(=O)NCc2ccc(-c3ccc(Cl)cc3)s2)ccc1-n1cnc(C)c1 [Example 49, N-{[5-(4-chlorophenyl)-2-thienyl]methyl}-3-methoxy-4-(4-methyl-1H-imidazol-1-yl) benzamide] | 6.86 |
| COc1cc(C(=O)NCCc2c[nH]c3ccc(Br)cc23)ccc1-n1cnc(C)c1 [Example 52, N-[2-(5-bromo-1H-indol-3-yl)ethyl]-3-methoxy-4-(4-methyl-1H-imidazol-1-yl) benzamide] | 6.60 |
| COc1cc(C(=O)NCc2csc(-c3ccc(Cl)cc3)n2)ccc1-n1cnc(C)c1 [Example 53, N-{[2-(4-chlorophenyl)-1,3-thiazol-4-yl]methyl}-3-methoxy-4-(4-methyl-1H-imidazol-1-yl) benzamide] | 6.51 |
| COc1cc(C(=O)NC(C)COc2c(C)cccc2C)ccc1-n1cnc(C)c1 (stereo not drawn) [Example 56, N-[2-(2,6-dimethyl-phenoxy)-1-methylethyl]-3-methoxy-4-(4-methyl-1H-imidazol-1-yl) benzamide] | 6.47 |
| COc1cc(C(=O)NCc2ccc(OC(F)(F)F)cc2)ccc1-n1cnc(C)c1 [Example 57, 3-methoxy-4-(4-methyl-1H-imidazol-1-yl)-N-[4-(trifluoro-methoxy)benzyl] benzamide] | 6.47 |
| COc1cc(C(=O)NCc2sc3c(F)ccc(F)c3c2Cl)ccc1-n1cnc(C)c1 [Example 58, N-[(3-chloro-4,7-difluoro-1-benzothien-2-yl)methyl]-3-methoxy-4-(4-methyl-1H-imidazol-1-yl) benzamide] | 6.46 |
| COc1cc(C(=O)NCc2ccc(Cl)cc2C)ccc1-n1cnc(C)c1 [Example 59, N-(4-chloro-2-methylbenzyl)-3-methoxy-4-(4-methyl-1H-imidazol-1-yl) benzamide] | 6.45 |
| COc1cc(C(=O)NCc2cccc(Oc3ccccc3)c2)ccc1-n1cnc(C)c1 [Example 60, 3-methoxy-4-(4-methyl-1H-imidazol-1-yl)-N-(3-phenoxybenzyl) benzamide] | 6.45 |
| COc1cc(C(=O)NCc2cc(F)cc(C(F)(F)F)c2)ccc1-n1cnc(C)c1 [Example 62, N-[3-fluoro-5-(trifluoromethyl)benzyl]-3-methoxy-4-(4-methyl-1H-imidazol-1-yl) benzamide] | 6.43 |
| COc1cccc(C[C@@H]2CCC[C@@H]2NC(=O)c2ccc(-n3cnc(C)c3)c(OC)c2)c1 [Example 63, 3-methoxy-N-[(1S,2S)-2-(3-methoxybenzyl)cyclopentyl]-4-(4-methyl-1H-imidazol-1-yl) benzamide] | 6.41 |
| COc1cccc(C2(CNC(=O)c3ccc(-n4cnc(C)c4)c(OC)c3)CCCC2)c1 [Example 65, 3-methoxy-N-{[1-(3-methoxyphenyl)cyclopentyl]methyl}-4-(4-methyl-1H-imidazol-1-yl) benzamide] | 6.39 |
| COc1cc(C(=O)NCc2ccc(F)c(C(F)(F)F)c2)ccc1-n1cnc(C)c1 [Example 66, N-[4-fluoro-3-(trifluoromethyl)benzyl]-3-methoxy-4-(4-methyl-1H-imidazol-1-yl) benzamide] | 6.39 |
| COc1cc(C(=O)NCc2ccc(Cl)c(Cl)c2)ccc1-n1cnc(C)c1 [Example 67, N-(3,4-dichlorobenzyl)-3-methoxy-4-(4-methyl-1H-imidazol-1-yl) benzamide] | 6.39 |
| COc1cc(C(=O)NCCc2nc3cccc(Cl)c3o2)ccc1-n1cnc(C)c1 [Example 68, N-[2-(7-chloro-1,3-benzoxazol-2-yl)ethyl]-3-methoxy-4-(4-methyl-1H-imidazol-1-yl) benzamide] | 6.38 |
| COc1cc(C(=O)NCc2sc3ccccc3c2Cl)ccc1-n1cnc(C)c1 [Example 70, N-[(3-chloro-1-benzothien-2-yl)methyl]-3-methoxy-4-(4-methyl-1H-imidazol-1-yl) benzamide] | 6.37 |
| COc1cc(C(=O)NCCc2cc(C)ccc2C)ccc1-n1cnc(C)c1 [Example 71, N-[2-(2,5-dimethylphenyl)ethyl]-3-methoxy-4-(4-methyl-1H-imidazol-1-yl) benzamide] | 6.37 |
| COc1cc(C(=O)N[C@@H]2CCC[C@@H]2Cc2ccccc2)ccc1-n1cnc(C)c1 [Example 72, N-[(1R,2R)-2-benzylcyclopentyl]-3-methoxy-4-(4-methyl-1H-imidazol-1-yl) benzamide] | 6.35 |
| COc1cc(C(=O)NCc2ccccc2OC(F)(F)F)ccc1-n1cnc(C)c1 [Example 75, 3-methoxy-4-(4-methyl-1H-imidazol-1-yl)-N-[2-(trifluoromethoxy)benzyl] benzamide] | 6.33 |

Same assay, conditions: read-out: Aβ 42 IC50; Single IC50 determination; human WT-APP overexpressing CHO cells

| Compound | pIC50 |
| --- | --- |
| COc1cc(C(=O)NCC2(c3ccc(Br)cc3)CC2)ccc1-n1cnc(C)c1 [Example 39, N-{[1-(4-bromophenyl)cyclopropyl]methyl}-3-methoxy-4-(4-methyl-1H-imidazol-1-yl) benzamide] | 6.61 |
